pIC50: −log10 of the molar value.
Assays:
[1] = target: stromelysin (Homo sapiens, UniProt P08254); assay: Stromelysin inhibition (hydrolysis of 14C acetylated casein); assay type: biochemical; settings: 37°, 16 hours, pH 7.5, 14C acetylated casein
Description: The potency of compounds of the invention as inhibitors of stromelysin was determined by the procedure of Cawston et al, (Biochem. J., 195, 159-165, 1981), hereby incorporated by reference, whereby a 1 mM solution of the compound being tested, or a dilution thereof, was incubated at 37° for 16 hours with stromelysin and ^14 C acetylate casein (buffered with 25 mM Hepes [Registered Trade Mark], pH 7.5 containing 5 mM CaCl2, 0.05% Brij [Registered Trade Mark] 35 and 0.02% NAN3). The casein was acetylated ^14 C casein prepared by the method of Cawston et al (ibid).

[2] = target: collagenase (Homo sapiens, UniProt P03956); assay: Collagenase inhibition (hydrolysis of acetylated 14C collagen); assay type: biochemical; settings: 37° C., 16 hours, pH 7.5, acetylated 14C collagen
Sequence of collagenase (P03956 100-469): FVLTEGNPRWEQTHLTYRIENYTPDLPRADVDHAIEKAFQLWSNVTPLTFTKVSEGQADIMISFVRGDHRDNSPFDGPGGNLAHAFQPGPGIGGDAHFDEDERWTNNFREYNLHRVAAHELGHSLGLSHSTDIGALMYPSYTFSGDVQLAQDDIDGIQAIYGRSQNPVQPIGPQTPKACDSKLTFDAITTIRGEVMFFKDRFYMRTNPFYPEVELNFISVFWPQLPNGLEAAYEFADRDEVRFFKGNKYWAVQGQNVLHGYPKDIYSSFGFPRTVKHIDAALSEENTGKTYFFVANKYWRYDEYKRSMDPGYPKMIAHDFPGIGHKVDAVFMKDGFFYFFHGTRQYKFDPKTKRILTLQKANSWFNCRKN
Description: The potency of compounds of the invention as inhibitors of collagenase was determined by the procedure of Cawston and Barrett, (Anal. Biochem., 99, 340-345, 1979), hereby incorporated by reference, whereby a 1 mM solution of the compound being tested, or a dilution thereof, was incubated at 37° C. for 16 hours with collagen and collagenase (buffered with 25 mM Hepes [Registered Trade Mark], pH 7.5 containing 5 mM CaCl2, 0.05% Brij [Registered Trade Mark] 35 and 0.02% NAN3). The collagen Was acetylated 14C collagen prepared by the method of Cawston and Murphy, (Methods in Enzymology, 80, 711, 1981), hereby incorporated by reference. The samples were centrifuged to sediment undigested collagen, and an aliquot of the radioactive supernatant removed for assay on a scintillation counter as a measure of hydrolysis.

Sequence of stromelysin (P08254 100-477): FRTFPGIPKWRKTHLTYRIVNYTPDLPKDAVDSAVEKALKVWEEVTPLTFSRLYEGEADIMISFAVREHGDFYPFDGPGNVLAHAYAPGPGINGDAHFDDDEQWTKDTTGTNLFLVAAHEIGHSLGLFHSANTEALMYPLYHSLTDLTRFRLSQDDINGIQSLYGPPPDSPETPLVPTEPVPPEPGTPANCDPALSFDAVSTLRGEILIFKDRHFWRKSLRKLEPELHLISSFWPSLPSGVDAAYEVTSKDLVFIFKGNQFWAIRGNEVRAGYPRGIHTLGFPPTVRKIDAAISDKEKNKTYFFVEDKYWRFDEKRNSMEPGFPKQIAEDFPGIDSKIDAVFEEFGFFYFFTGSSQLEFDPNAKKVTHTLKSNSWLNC

pIC50 [1]: 6.22 | pIC50 [2]: 7.70
SMILES: CNC(=O)[C@H](Cc1ccc(OCC(=O)N[C@@H]2O[C@H](CO)[C@@H](O)[C@H](O)[C@H]2NC(C)=O)cc1)NC(=O)[C@@H](CC(=O)NO)CC(C)C [Example 3, [4-(N-Hydroxyamino)-2R-isobutylsuccinyl]-O-[(2-acetamido-2-deoxy-β-D-glucopyranosyl)carboxamidomethyl]-L-tyrosine-N-methylamide]

From patent US5696082A, “Hydroxamic acid derivatives” (British Biotech Pharmaceuticals Limited, priority 1993, dated 1997)
